Measurements as given in patent US8492515B2 (priority 2008, dated 2013).
Entries after “also recorded” stand apart in the source; their conditions may differ. Bridge positions count the residues as written; N and C are the ends. Square brackets hold non-standard residues; d marks the D form. Ends that are not written are not given here. Peptide text beside a SMILES is read from it. I, II: the chains in the order shown. Ac6c = NC1(C(=O)O)CCCCC1; Dab = NCC[C@H](N)C(=O)O; Dap = NC[C@H](N)C(=O)O

Tests used:
[1] = approximately 100 μL retrieved blood (female CD-1 mice retroorbitally bled), ex vivo; conditions: 37° C., up to 30 min
[2] = blood taken from the eye of CD-1 mice injected intravenously with A3-APO; conditions: up to 240 minutes
[3] = test system: Escherichia coli 5770; assay: Blood bacterial counts before and after intraperitoneal dosing of infected CD-1 mice (FIGS. 4A, 4B); format: in vivo; conditions: compared with imipenem in the respective assay
Description: FIGS. 4A and 4B illustrate blood bacterial counts before and after intraperitoneal drug dosing to Escherichia coli 5770 infected CD-1 mice. In FIG. 4A the symbols represent bacterial counts observed for infected and non-treated mice, A3-APO treated mice and imipenem treated mice. In FIG. 4B the symbols represent bacterial counts observed for infected and non-treated mice, Chex1-Arg20-NH2 treated mice and imipenem treated mice. Identical shapes if FIGS. 4A and 4B represent identical timepoints, respectively.
Both A3-APO and Chex1-Arg20 are active in lethal systemic infections. Efficacy is shown in both the increase of survival time and the reduction of blood bacterial counts. FIGS. 4A and 4B show blood bacterial counts before and after intraperitoneal drug dosing to Escherichia coli 5770 infected CD-1 mice. In FIG. 4A the symbols represent bacterial counts observed for infected and non-treated mice, A3-APO treated mice and imipenem treated mice. In FIG. 4B the symbols represent bacterial counts observed for infected and non-treated mice, Chex1-Arg20-NH2 treated mice and imipenem treated mice. Identical shapes if FIGS. 4A and 4B represent identical timepoints, respectively.

[4] = test system: E. coli HK179; conditions: HK179, 16 h
Description: (§1) To investigate the activity of the A3-APO metabolites, Chex1-Arg20 single chain unit and an Arg7-Arg20 common cleavage fragment were synthesized and studied for their ability to kill Enterobacteriaceae strains in undiluted Muller-Hinton broth, a true measure of potential clinical viability (Otvos et al., 2005. J. Med. Chem. 48: 5349-5359). The peptides of the invention were made on a CEM Liberty automated synthesizer with standard Fmoc-chemistry. The peptides were detached from the resin with the carboxyl terminus of the C-terminal Arg residue being in the form of an amino amide, —C(O)—NH2 (“Chex1-Arg20-NH2” and “Arg7-Arg20-NH2”), while still in the microwave chamber, and were purified by RP-HPLC. […] The biological studies carried out on chemically synthesized peptides in this example and succeeding examples were carried out on the C-terminal modified versions of the peptides wherein the C-terminal carboxylic acid function was in the form of an amide, —C(O)—NH2. Antibacterial growth inhibition assays were performed using sterile 96-well polypropylene plates (Nunc F96 microtiter plates) in a final volume of 100 μL as described previously (Cudic et al., 2002. Peptides 23: 271-283). The cell concentrations were estimated by measuring the ultraviolet absorbance at 600 nm and applying the formula cfu/mL=A600(3.8×10^8), where cfu is the number of colony-forming units. Briefly, 50 μL of a suspension of midlogarithmic phase bacterial cultures diluted to 5×10^5 cfu/mL in Muller-Hinton broth (MHB) was added to 50 μL of serially diluted peptides also dissolved in MHB. The final peptide concentration was 128 μg/mL. Cultures were then incubated at 37° C., 5% CO2 for 16-20 h without shaking, and growth inhibition was measured by recording the absorbance at 600 nm using a microplate reader. […] The minimal inhibitory concentration indicates the lowest peptide dose where no visible bacterial growth is detected after 16 hours incubation in full strength Muller-Hinton broth at 37° C. The peptide Chex-pyrr-Dap dimer was also included in the study. […] (Cudic et al., 2002. Peptides 23: 271-283).

[5] = test system: K. pneumoniae HK123; conditions: HK123, 16 h
Description: as §1

[6] = test system: E. coli SEQ102; conditions: SEQ102, 16 h
Description: as §1

[7] = test system: E. coli D31; conditions: full strength Muller-Hinton broth, 16 hours, 37° C.
Description: as §1

[8] = test system: Enterobacteriaceae strains
Description: as §1

[9] = test system: S. typhimurium G10215; conditions: G10215, 16 h
Description: as §1

[10] = test system: extended-spectrum β-lactamase producing E. coli strain (designation 5770); assay: Systemic infection model, cisplatin-pretreated CD-1 mice, blood bacterial counts; format: in vivo; conditions: 40 mg/kg ip
Method: As peptide drugs, such as antimicrobial peptides, are predominantly cleared through the kidneys (Klootwijk et al., 1997. J. Clin. Endocrinol. Metab. 82: 3068-3073) and the kidney functions of mice are 20-fold faster than those of humans, CD-1 female mice of 15-20 g were pretreated with 18 mg/kg cisplatin for 3 days to impair kidney clearance similar to the levels observed in humans (Mathe et al., 2006. Lab. Anim. 40: 296-300) before they were challenged intraperitoneally (ip) with 10^8 CFU per g mouse of an extended-spectrum β-lactamase producing E. coli strain (designation 5770). Four, 8 and 12 hours after challenge 10 or 20 mg/kg peptide Chex1-Arg20 or 40 mg/kg imipenem (as a positive control) were administered ip to 10 mice in each group. Imipenem is a broad spectrum β-lactam antibiotic. Prior to drug administration at all three timepoints, blood was taken from the tail vein of 3-5 mice for determining blood bacterial counts. […] Antimicrobials were administered ip 4 hours after challenge 3 times in 4 hour intervals. Blood was taken immediately before antimicrobial treatments. Numbers in parentheses indicate the number of mice with <10^3 CFU/mL. Bacterial counts were determined 10 times from different dilution of blood from 5 mice in each group in each timepoints.

[11] = test system: Escherichia coli 5770; assay: Mouse survival after last dose, systemic infection model without cisplatin pretreatment; format: in vivo; conditions: 40 mg/kg
Method: The survival rate and the dynamics of survival of mice after the last dose of an antibacterial peptide treatment (12 hours post-infection) were measured in a mouse model of Escherichia coli 5770 systemic infection. In this particular study, the animals were not pretreated with cisplatin. Ten animals were used in each group. […] In the control (infected, non-treated) and the imipenem treated rows, the first numbers reflect the number of surviving animals on the day of assay measuring the efficacy of the Chex1-Arg20 and the second numbers are the surviving control animals on the day of the A3-APO efficacy assay.

[12] = ex vivo blood, protocol of 'Stability of Peptide A3-APO in Whole Blood'; conditions: CD-1 mice, 37° C., up to 120 min

(SEQ ID NO: 2)2-Dab (I: [Ac6c]RPDKPRPYLPRPRPPRPVR[Dab] / II: [Ac6c]RPDKPRPYLPRPRPPRPVR; amide I:21-II:C (inferred))
fragment found [1]: Chex1-Val19; Chex-Arg-Pro-Asp-Lys-Pro-Arg-Pro-Tyr-Leu-Pro-Arg-Pro-Arg-Pro-Pro-Arg-Pro-Val (SEQ ID NO: 4), 30 min; also recorded: Chex1-Dab21; Chex-Arg-Pro-Asp-Lys-Pro-Arg-Pro-Tyr-Leu-Pro-Arg-Pro-Arg-Pro-Pro-Arg-Pro-Val-Arg-Dab (SEQ ID NO: 7), 30 min
fragment found [2]: Chex1-Arg20; Chex-Arg-Pro-Asp-Lys-Pro-Arg-Pro-Tyr-Leu-Pro-Arg-Pro-Arg-Pro-Pro-Arg-Pro-Val-Arg (SEQ ID NO: 2), major, 5 minutes

Chex-Arg-Pro-Asp-Lys-Pro-Arg-Pro-Tyr-Leu-Pro-Arg-Pro-Arg--Pro-Pro-Arg-Pro-Val-Arg-NH2 ([Ac6c]RPDKPRPYLPRPRPPRPVR-NH2) [Chex1-Arg20-NH2]
reduction of blood bacterial counts [3]: reduced the bacterial counts to levels identical to those observed after imipenem treatment

RPYLPRPRPPRPVR-NH2 [Arg7-Arg20, Arg-Pro-Tyr-Leu-Pro-Arg-Pro-Arg-Pro-Pro-Arg-Pro-Val-Arg]
MIC against E. coli HK179 [4]: >64 µg/mL
MIC against K. pneumoniae HK123 [5]: >64 µg/mL
MIC against E. coli SEQ102 [6]: >64 µg/mL
MIC against E. coli D31 [7]: >64 µg/mL
MIC values against the test strain [8]: > 64 µg/mL
MIC against S. typhimurium G10215 [9]: >64 µg/mL

C[C@@H](O)[C@H]1C(=O)N2C(C(=O)O)=C(SCCN=CN)C[C@H]12 [Imipenem, reference compound]
Bacterial counts in blood after inoculation/challenge ([10]; 4 h (blood taken before first dose)): 3.2 × 10^5 CFU/mL
Bacterial counts in blood after inoculation/challenge ([10]; 8 h): 3.7 × 10^3 CFU/mL
Bacterial counts in blood after inoculation/challenge ([10]; 12 h): < 1.2 × 10^3 CFU/mL
number of surviving mice (10 animals each) ([11]; 0 h after last dose, day of the A3-APO assay): 9
number of surviving mice (10 animals each) ([11]; 0 h after last dose, day of the Chex1-Arg20 assay): 10
number of surviving mice (10 animals each) ([11]; 3 h after last dose, day of the A3-APO assay): 9
number of surviving mice (10 animals each) ([11]; 3 h after last dose, day of the Chex1-Arg20 assay): 10
number of surviving mice (10 animals each) ([11]; 6 h after last dose, day of the A3-APO assay): 9
number of surviving mice (10 animals each) ([11]; 6 h after last dose, day of the Chex1-Arg20 assay): 10
number of surviving mice (10 animals each) ([11]; 9 h after last dose, day of the A3-APO assay): 9
number of surviving mice (10 animals each) ([11]; 9 h after last dose, day of the Chex1-Arg20 assay): 10
number of surviving mice (10 animals each) ([11]; 12 h after last dose, day of the A3-APO assay): 9
number of surviving mice (10 animals each) ([11]; 12 h after last dose, day of the Chex1-Arg20 assay): 10

CC[C@H](C)[C@H](NC(=O)[C@@H]1CCCN1C(=O)[C@H](CCCNC(=N)N)NC(=O)[C@@H]1CCCN1C(=O)[C@@H]1CCCN1C(=O)[C@@H](NC(=O)[C@@H]1CCCN1C(=O)[C@H](CCCNC(=N)N)NC(=O)[C@@H]1CCCN1C(=O)[C@H](CC(C)C)NC(=O)[C@H](Cc1ccc(O)cc1)NC(=O)[C@H](CO)NC(=O)CNC(=O)[C@H](CCCCN)NC(=O)[C@H](CC(=O)O)NC(=O)C1(N)CCCCC1)[C@@H](C)O)C(=O)N[C@@H](Cc1ccc(O)cc1)C(=O)N[C@@H](CC(N)=O)C(=O)N[C@@H](CCCNC(=N)N)C(=O)NC[C@H](NC(=O)[C@H](CCCNC(=N)N)NC(=O)[C@H](CC(N)=O)NC(=O)[C@H](Cc1ccc(O)cc1)NC(=O)[C@@H](NC(=O)[C@@H]1CCCN1C(=O)[C@H](CCCNC(=N)N)NC(=O)[C@@H]1CCCN1C(=O)[C@@H]1CCCN1C(=O)[C@@H](NC(=O)[C@@H]1CCCN1C(=O)[C@H](CCCNC(=N)N)NC(=O)[C@@H]1CCCN1C(=O)[C@H](CC(C)C)NC(=O)[C@H](Cc1ccc(O)cc1)NC(=O)[C@H](CO)NC(=O)CNC(=O)[C@H](CCCCN)NC(=O)[C@H](CC(=O)O)NC(=O)C1(N)CCCCC1)[C@@H](C)O)[C@@H](C)CC)C(=O)N[C@@H](CNC(C)=O)C(N)=O [Chex-pyrr-Dap dimer] (I: H-[Ac6c]DKGSYLPRPTPPRPIYNR[Dap][Dap](Ac)-NH2 / II: H-[Ac6c]DKGSYLPRPTPPRPIYNR; amide I:20-II:C; N-terminus assumed)
MIC against E. coli HK179 [4]: >64 µg/mL
MIC against K. pneumoniae HK123 [5]: >64 µg/mL
MIC against E. coli SEQ102 [6]: >64 µg/mL
activity in full-strength Muller-Hinton broth ([8]; negative control): without significant activity
MIC against S. typhimurium G10215 [9]: >64 µg/mL

Chex-Arg-Pro-Asp-Lys-Pro-Arg-Pro-Tyr-Leu-Pro-Arg-Pro-Arg-Pro-Pro-Arg-Pro-Val-Arg
cleaved bond [12]: Val19-Arg20
